One compound from patent US8466193B2, “Selective inhibitors of histone deacetylase” (Pharmacyclics, Inc., priority 2008, dated 2013) can be followed below.

In one series the target is T1, HDAC8 (Homo sapiens, UniProt Q9BY41).
T1 sequence (Q9BY41 1-377): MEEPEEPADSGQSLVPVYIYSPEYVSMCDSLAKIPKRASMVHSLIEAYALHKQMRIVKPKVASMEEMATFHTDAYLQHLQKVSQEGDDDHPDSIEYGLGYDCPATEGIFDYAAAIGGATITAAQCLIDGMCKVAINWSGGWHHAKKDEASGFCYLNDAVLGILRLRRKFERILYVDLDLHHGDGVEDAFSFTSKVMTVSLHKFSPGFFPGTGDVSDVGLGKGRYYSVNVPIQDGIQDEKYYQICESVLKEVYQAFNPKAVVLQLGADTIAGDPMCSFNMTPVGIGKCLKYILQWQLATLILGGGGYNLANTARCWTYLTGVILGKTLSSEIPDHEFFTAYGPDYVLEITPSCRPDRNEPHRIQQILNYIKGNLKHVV
Briefly: Histone deacetylase activity, continuous trypsin-coupled assay. It counts as biochemical. As to conditions: 15 minutes preincubation; substrate acetyl-Gly-Ala-(N-acetyl-Lys)-AMC. How it is done: HDAC activity was measured using a continuous trypsin-coupled assay that has been described in detail previously (US 20070281934; Schultz et. al., Biochemistry, 43 (34), 11083-11091, 2004; Kim et al. (2006), Methods Mol. Biol., 325:273-283). For inhibitor characterization, measurements were performed in a reaction volume of 100 μL using 96-well assay plates in a fluorescence plate reader. For each isozyme, the HDAC protein in reaction buffer (50 mM HEPES, 100 mM KCl, 0.001% Tween-20, 5% DMSO, pH 7.4, supplemented with bovine serum albumin at concentrations of 0-0.05%, was mixed with inhibitor at various concentrations and allowed to incubate for 15 minutes. Trypsin was added to a final concentration of 50 nM, and acetyl-Gly-Ala-(N-acetyl-Lys)-AMC was added to a final concentration of 25-100 μM to initiate the reaction. After a 30 minute lag time, the fluorescence was measured over a 30 minute time frame using an excitation wavelength of 355 nm and a detection wavelength of 460 nm. The increase in fluorescence with time was used as the measure of the reaction rate. Inhibition constants Ki(app) were obtained using the program BatchKi (Biokin, Pullman, Wash.).

Another series deals with Jurkat cells. As to the kind of experiment: Cell proliferation assay, growth inhibition by Alamar Blue. It counts as cell-based. As to conditions: Homo sapiens, 72 h, Jurkat cells treated with compound for 3 days. How it is done:
Cell lines were obtained from DSMZ (Braunschweig, Germany) or ATCC (Manassas, Va.). Cells were grown in RPMI 1640 with 10% fetal bovine serum in a 5% CO2/air incubator at 37° C. Thapsigargin and BAPTA-AM were from Calbiochem (San Diego, Calif.). 3-((dimethylamino)methyl)-N-(2-(4-(hydroxycarbamoyl)phenoxy)ethyl)benzofuran-2-carboxamide is a broad-spectrum HDAC inhibitor which was synthesized as previously described. Other analogs with varying degrees of specificity towards the HDAC isoforms were synthesized as described herein.
Tumor cell lines and human umbilical vein endothelial cells (HUVEC) were cultured for at least two doubling times, and growth was monitored at the end of compound exposure using an Alamar Blue™ (Biosource, Camarillo, Calif.) fluorometric cell proliferation assay as recommended by the manufacturer. Compounds were assayed in triplicate wells in 96-well plates. The concentration required to inhibit cell growth by 50% (GI50) and 95% confidence intervals were estimated from nonlinear regression using a 4-parameter logistic equation. The effect of HDAC8 selective inhibitor compounds on cell proliferation in Jurkat cells was measured. Apoptosis was measured by Annexin-V flow cytommetry. Growth inhibition was measured by Alamar Blue assay. Cells were treated with compound for 3 days.
A general note: The colour change of resazurin is a common sign of viable cells or microbes.

The nature of series [1]: Pharmacokinetic analysis in male rats, oral gavage. As to conditions: CD IGS (Sprague-Dawley derived), rat, plasma, orally at 3 mg/kg, compounds administered in combination. It is filed as in vivo. How it is done: This study, performed in male rats with test compounds (Compound 303 and Compound 316), was designed to provide preliminary information on their pharmacokinetics. The test compounds were administered in combination by oral gavage.
The specifications for rats used on this study are as follows: • Strain: CD® IGS rats (Sprague-Dawley derived) • Source: Charles River Laboratories • Surgical modification for oral dosing: One portal vein cannula and one jugular vein cannula • Body weight range at dosing 350 to 375 g
The rats were acclimatized to laboratory conditions for at least 24 hours before dosing. The evening before dosing, food was withheld from the rats and was returned immediately following the 3-hour blood collection time point. Water was provided ad libitum. The rats were housed individually in translucent polycarbonate cages.
Test compounds were prepared as 3.0 mg/ml solutions (1% MC/0.4% Cr EL in WFI).
Rats were administered a single dose of test compound in combination by oral gavage. Dose volumes were adjusted based on body weight data collected immediately prior to dosing.
The dose volume was 1 ml/kg and the nominal dosage was 3 mg/kg.
Blood samples were collected at 5 minutes, 20 minutes, 1 hour, 3 hours, 6 hours, 9 hours, and 24 hours post-dosing from orally dosed rats. The samples were collected into plasma separator Microtainer tubes with anticoagulant (lithium heparin). Plasma samples were prepared by centrifugation (5 min at 5000×g), and at least 100 μL were transferred to storage tubes and frozen on dry ice. Samples were maintained at approximately −75 C until prepared for analysis.
Plasma samples were thawed and 75 uL aliquots were transferred to centrifuge tubes to which 10 μL aliquots of internal standard solution (0.5 μg/mL) were added. The samples were not diluted with blank plasma prior to further processing. Soluble proteins were precipitated by the addition of 300 μL of methanol, followed by centrifugation (20 min at 16,000×g). The samples were evaporated to dryness and reconstituted in 100 μL of water containing 0.2% formic acid and 10% methanol. All samples were loaded onto an autosampler maintained at 6° C. and evaluated for concentrations of test compound using LC-MS/MS. lasma concentration data were evaluated using the computer program WinNonlin (Professional Edition, Pharsight Corporation, version 5.01). […]
Pan HDAC inhibitor 3-((dimethylamino)methyl)-N-(2-(4-(hydroxycarbamoyl)phenoxy)ethyl)benzofuran-2-carboxamide was added to the cassette to serve as a standard since the pharmacokinetics of this compound have been determined previously in rats. The UC's determined for rats administered Compound 303 and Compound 316 orally at 3 mg/kg were 1.42, and 5.36 μg·h/mL, respectively. […]

Each structure is given as a SMILES string.

For the compound `O=C(NO)c1ccc2ccn(CCOc3ccccc3)c2c1` [Compound 316, N-hydroxy-1-(2-phenoxyethyl)-1H-indole-6-carboxamide], at HDAC8, the IC50 was < 1 µM. Moreover, the GI50 with Jurkat cells worked out at 2.8 µM. For the same compound, in series [1], the AUC was 5.36 µg·h/mL and the Cmax was 0.828 µg/mL.

The term IC50 denotes the concentration that gives 50% inhibition. A higher IC50 goes with a need for much substance. Usually GI50 stands for the concentration that inhibits growth by half. For orientation: AUC means the area under the concentration-time curve, a measure of exposure. The Cmax is the maximum level reached in the sampled fluid or tissue.
